Laboratory results reported in ChEMBL document CHEMBL1201862, “PubChem BioAssay data set” (2004).
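How tested: cells in 96-well plates exposed to compound for 48 hours at five concentrations. At the GI50, growth is halved.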 Calls of active or inactive are those of the source. No stated cut-off is given here; in the data, active = GI50 up to about 1.1 µM and inactive = higher.

Key:
Assay in all cases: NCI-60 cell line screen, 48 h
EKVX = test system: EKVX
LOX IMVI = test system: LOX IMVI
A549 = test system: A549
HL-60 = test system: HL-60
COLO 205 = test system: COLO 205
ACHN = test system: ACHN
RXF 393 = test system: RXF 393
SNB-19 = test system: SNB-19
SR = test system: SR
MDA-MB-231 = test system: MDA-MB-231
PC-3 = test system: PC-3
K562 = test system: K562
HCT-15 = test system: HCT-15
KM12 = test system: KM12
NCI-H460 = test system: NCI-H460
HCT-116 = test system: HCT-116
NCI-H522 = test system: NCI-H522
MCF7 = test system: MCF7
M14 = test system: M14
NCI-H226 = test system: NCI-H226

SMILES | GI50 (EKVX) | GI50 (LOX IMVI) | GI50 (A549) | GI50 (HL-60) | GI50 (COLO 205) | GI50 (ACHN) | GI50 (RXF 393) | GI50 (SNB-19) | GI50 (SR) | GI50 (MDA-MB-231) | GI50 (PC-3) | GI50 (K562) | GI50 (HCT-15) | GI50 (KM12) | GI50 (NCI-H460) | GI50 (HCT-116) | GI50 (NCI-H522) | GI50 (MCF7) | GI50 (M14) | GI50 (NCI-H226)
ClCc1nc2ccccc2[nH]1 | > 100 µM (inactive) | 37.2 µM (inactive) | > 100 µM (inactive) | > 100 µM (inactive) | > 100 µM (inactive) | 85.1 µM (inactive) | > 100 µM (inactive) | > 100 µM (inactive) | 56 µM (inactive) | > 100 µM (inactive) | > 100 µM (inactive) | > 100 µM (inactive) | > 100 µM | > 100 µM (inactive) | > 100 µM (inactive) | > 100 µM (inactive) | > 100 µM (inactive) | 99.1 µM (inactive) | > 100 µM (inactive) | > 100 µM (inactive)
O=C(CCCN1CCC2(CC1)C(=O)NC(=O)N2c1ccccc1)c1ccc(F)cc1 | > 100 µM (inactive) | > 100 µM (inactive) | > 100 µM (inactive) | > 100 µM (inactive) | > 100 µM (inactive) | > 100 µM (inactive) | > 100 µM (inactive) | > 100 µM (inactive) | > 100 µM (inactive) | > 100 µM (inactive) | > 100 µM (inactive) | > 10 µM (inactive) | > 100 µM | > 100 µM (inactive) | > 100 µM (inactive) | > 100 µM (inactive) | 8.73 µM (inactive) | > 100 µM (inactive) | > 100 µM (inactive) | > 100 µM (inactive)
CCN(CC)c1cc2c3c(c1)CCCN3CCC2 | > 10 µM (inactive) | > 10 µM (inactive) | > 10 µM (inactive) | > 10 µM (inactive) | > 10 µM (inactive) | > 10 µM (inactive) | > 10 µM (inactive) | > 10 µM (inactive) | > 10 µM (inactive) | > 10 µM (inactive) | > 10 µM (inactive) | > 10 µM (inactive) | > 10 µM | > 10 µM (inactive) | > 10 µM (inactive) | > 10 µM (inactive) | > 10 µM (inactive) | > 10 µM (inactive) | > 10 µM (inactive) | > 10 µM (inactive)
CN(CCNC(=O)c1cc(-c2ccccc2)nc2ccccc12)CCNC(=O)c1cc(-c2ccccc2)nc2ccccc12 | 15.9 µM (inactive) | 3.89 µM (inactive) | > 100 µM (inactive) | 4.7 µM (inactive) | 2.22 µM (inactive) | > 47 µM (inactive) | 8.67 µM (inactive) | > 60 µM (inactive) | 2.98 µM (inactive) | > 50.4 µM (inactive) | 10.3 µM (inactive) | 3.55 µM (inactive) | > 80.5 µM | 4.46 µM (inactive) | 8.87 µM (inactive) | 8.05 µM (inactive) | 14.3 µM (inactive) | 3.87 µM (inactive) | 2.17 µM (inactive) | 14.6 µM (inactive)
c1ccc([C@@H]2N[C@@]3(CO[Si](c4ccccc4)(c4ccccc4)c4ccccc4)CC[C@H]4CN[C@@H]2[C@H]43)cc1 | 15.3 µM (inactive) | 10.4 µM (inactive) | 12.3 µM (inactive) | 4.36 µM (inactive) | 1.68 µM (inactive) | 13.7 µM (inactive) | 4.3 µM (inactive) | 17.2 µM (inactive) | 3.15 µM (inactive) | 11.8 µM (inactive) | 9.06 µM (inactive) | 3.33 µM (inactive) | 3.17 µM | 3.62 µM (inactive) | 10.4 µM (inactive) | 3.23 µM (inactive) | 3.43 µM (inactive) | 2.99 µM (inactive) | 5.65 µM (inactive) | 12.4 µM (inactive)
O=C(/C=C1\Nc2ccc([N+](=O)[O-])cc2N\C1=C/C(=O)c1ccc(F)cc1)c1ccc(F)cc1 | 45.9 µM (inactive) | > 100 µM (inactive) | > 100 µM (inactive) | 20.7 µM (inactive) | > 100 µM (inactive) | 13.9 µM (inactive) | 17.9 µM (inactive) | 23.1 µM (inactive) | 16.8 µM (inactive) | 16 µM (inactive) | > 100 µM (inactive) | 22.2 µM (inactive) | 64.7 µM | > 100 µM (inactive) | 46.3 µM (inactive) | 32.5 µM (inactive) | 10.5 µM (inactive) | 52.8 µM (inactive) | > 100 µM (inactive) | 27.1 µM (inactive)
Nc1ncc2c(n1)-c1ccccc1OC2N1CCOCC1 (stereo not given) | 85.9 µM (inactive) | > 100 µM (inactive) | > 100 µM (inactive) | 44.5 µM (inactive) | > 100 µM (inactive) | > 100 µM (inactive) | > 100 µM (inactive) | > 100 µM (inactive) | 52.7 µM (inactive) | > 100 µM (inactive) | > 100 µM (inactive) | > 100 µM (inactive) | > 100 µM | > 100 µM (inactive) | > 100 µM (inactive) | > 100 µM (inactive) | 45.2 µM (inactive) | > 100 µM (inactive) | > 100 µM (inactive) | > 100 µM (inactive)
COC(=O)[C@]12CC[C@H]3CN(C(=O)OCc4ccccc4)[C@H]([C@H]31)[C@H](c1ccco1)N2S(=O)(=O)c1ccc(C)cc1 | 44.4 µM (inactive) | 16.3 µM (inactive) | 31.8 µM (inactive) | 16.3 µM (inactive) | 19.8 µM (inactive) | 35.3 µM (inactive) | 18.2 µM (inactive) | 34 µM (inactive) | 13.5 µM (inactive) | 35 µM (inactive) | 31 µM (inactive) | 16.9 µM (inactive) | 15.4 µM | 19.3 µM (inactive) | 26.5 µM (inactive) | 14.9 µM (inactive) | 19.2 µM (inactive) | 17.5 µM (inactive) | 17.5 µM (inactive) | 27.5 µM (inactive)
CC(O)(CNS(=O)(=O)c1ccccc1)c1ccccc1 (stereo not given) | > 100 µM (inactive) | > 100 µM (inactive) | > 100 µM (inactive) | > 100 µM (inactive) | > 100 µM (inactive) | > 100 µM (inactive) | > 100 µM (inactive) | > 100 µM (inactive) | > 100 µM (inactive) | > 100 µM (inactive) | > 100 µM (inactive) | > 100 µM (inactive) | > 100 µM | > 100 µM (inactive) | > 100 µM (inactive) | > 100 µM (inactive) | > 100 µM (inactive) | > 100 µM (inactive) | > 100 µM (inactive) | > 100 µM (inactive)
FC(F)(F)c1ccc2c(c1)nc(-c1ccccc1)n2CC1CCCN2CCCCC12 (stereo not given) | 29.2 µM (inactive) | 15.4 µM (inactive) | 24.9 µM (inactive) | 14.3 µM (inactive) | 13 µM (inactive) | 19.9 µM (inactive) | 19 µM (inactive) | 34.8 µM (inactive) | 17.6 µM (inactive) | 13.6 µM (inactive) | 15.3 µM (inactive) | 21.1 µM (inactive) | 21.9 µM | 19.2 µM (inactive) | 19.6 µM (inactive) | 16.4 µM (inactive) | 14.2 µM (inactive) | 17.1 µM (inactive) | 17.1 µM (inactive) | 20.8 µM (inactive)
